Laboratory results published in article PMC2874416 (Beilstein Journal of Organic Chemistry, 2010).
pIC50, pKi: −log10 of the molar value. Read-outs that look alike come from different tables or passages of the source.

Columns and labels:
α-galactosidase A = system: α-galactosidase A; parameters: method as in PMID 17894781, PMID 18381081, PMID 19387866, PMID 19287194; details: cultured Fabry patient cell lines, incubation for five days, 49 missense mutant forms; cited from earlier work
[1] = system: tissue globotriaosylceramide levels; parameters: method as in PMID 19773742; details: mouse model; cited from earlier work
[2] = target: T1, Agrobacterium sp. β-glucosidase/galactosidase (Agrobacterium sp., UniProt P12614); assay: Inhibition of Agrobacterium sp. β-glucosidase/galactosidase (Abg), Ki by kinetic studies; type: biochemical
T1 construct: made in house
T1 sequence (P12614 1-459): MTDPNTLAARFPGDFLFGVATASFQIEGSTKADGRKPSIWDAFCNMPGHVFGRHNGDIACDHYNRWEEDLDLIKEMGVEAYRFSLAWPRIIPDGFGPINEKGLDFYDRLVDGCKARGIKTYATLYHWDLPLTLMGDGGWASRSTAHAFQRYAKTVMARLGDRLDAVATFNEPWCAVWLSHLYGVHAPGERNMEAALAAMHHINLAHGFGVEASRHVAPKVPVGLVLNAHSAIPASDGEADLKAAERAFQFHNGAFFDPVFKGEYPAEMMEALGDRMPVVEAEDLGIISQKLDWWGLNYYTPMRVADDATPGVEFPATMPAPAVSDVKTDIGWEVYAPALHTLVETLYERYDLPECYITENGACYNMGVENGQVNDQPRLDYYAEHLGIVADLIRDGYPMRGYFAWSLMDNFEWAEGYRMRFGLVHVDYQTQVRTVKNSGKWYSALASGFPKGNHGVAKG
Procedure: glycosidase was purified and assayed as described. Kinetic studies were performed at 37 °C in pH 7.0 sodium phosphate buffer (50 mM) containing 0.1 % bovine serum albumin, using 7.2 x 10-5 mg/mL enzyme. Approximate values of Ki were determined using a fixed concentration of substrate, 4-nitrophenyl β-D- […]
times to 5 times the Ki value ultimately determined. A horizontal line drawn through […]
an inhibitor concentration equal to -Ki. Full Ki determinations where required, were performed using the same range of inhibitor concentrations while also varying substrate (4-nitrophenyl glucoside) concentrations from approximately 0.015 mM to 0.6 mM. Data were analysed by direct fit to the Michaelis Menten equation describing reaction in the presence of inhibitors using the program GraFit. […]

E. coli β-galactosidase = target: T2, E. coli β-galactosidase (Escherichia coli, UniProt P00722); assay: Inhibition of E. coli β-galactosidase, Ki by kinetic studies; type: biochemical
T2 construct: purchased Sigma Chemicals
T2 sequence (P00722 2-1024 limits assumed): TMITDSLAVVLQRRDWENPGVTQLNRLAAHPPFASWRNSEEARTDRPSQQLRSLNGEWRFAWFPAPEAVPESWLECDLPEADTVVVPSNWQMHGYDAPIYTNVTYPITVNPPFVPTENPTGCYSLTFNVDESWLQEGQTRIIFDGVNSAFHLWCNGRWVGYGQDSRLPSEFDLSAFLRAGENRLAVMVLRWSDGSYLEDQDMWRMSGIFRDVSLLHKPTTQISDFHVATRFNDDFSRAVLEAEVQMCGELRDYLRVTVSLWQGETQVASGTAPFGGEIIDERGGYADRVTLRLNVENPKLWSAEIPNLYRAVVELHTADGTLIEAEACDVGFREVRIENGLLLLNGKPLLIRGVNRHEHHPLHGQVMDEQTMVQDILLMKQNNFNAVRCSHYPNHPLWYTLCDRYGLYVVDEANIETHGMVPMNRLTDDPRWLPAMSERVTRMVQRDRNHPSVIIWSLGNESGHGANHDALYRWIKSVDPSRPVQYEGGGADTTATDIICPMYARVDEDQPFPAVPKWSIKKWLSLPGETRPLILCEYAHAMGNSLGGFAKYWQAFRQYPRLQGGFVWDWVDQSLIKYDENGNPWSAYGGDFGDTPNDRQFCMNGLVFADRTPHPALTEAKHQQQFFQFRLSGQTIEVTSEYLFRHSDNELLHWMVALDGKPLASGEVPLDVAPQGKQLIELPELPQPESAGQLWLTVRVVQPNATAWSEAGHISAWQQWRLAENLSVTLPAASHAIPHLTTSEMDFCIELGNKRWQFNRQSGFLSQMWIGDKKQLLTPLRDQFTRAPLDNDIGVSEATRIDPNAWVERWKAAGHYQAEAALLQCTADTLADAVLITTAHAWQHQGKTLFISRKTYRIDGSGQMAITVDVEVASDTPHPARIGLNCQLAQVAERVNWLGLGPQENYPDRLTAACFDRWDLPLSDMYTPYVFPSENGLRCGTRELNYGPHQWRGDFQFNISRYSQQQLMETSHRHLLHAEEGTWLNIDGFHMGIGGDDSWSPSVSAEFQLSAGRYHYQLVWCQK
Procedure: E. coli β-galactosidase was purchased from Sigma Chemicals. Kinetic studies were performed at 37°C in 100 mM sodium phosphate buffer, pH 7.0 containing 0.1% serum albumin. Rates of reaction were determined as a function of both varying substrate and inhibitor concentration over the concentration ranges indicated below.
Data obtained were analysed using a nonlinear regression analysis program GraFit, p-nitrogalactopyranoside (Km = 0.03 mM), 0.045 – 0.3 mM). […]

[3] = target: T3, green coffee bean α-galactosidase (Coffea arabica, UniProt Q42656); assay: Inhibition of green coffee bean α-galactosidase, Ki by kinetic studies; type: biochemical; details: 37 °C, pH 6.5, substrate PNP-Gal; read-out: Ki α-gal GCB
T3 construct: made in house
T3 sequence (Q42656 16-378): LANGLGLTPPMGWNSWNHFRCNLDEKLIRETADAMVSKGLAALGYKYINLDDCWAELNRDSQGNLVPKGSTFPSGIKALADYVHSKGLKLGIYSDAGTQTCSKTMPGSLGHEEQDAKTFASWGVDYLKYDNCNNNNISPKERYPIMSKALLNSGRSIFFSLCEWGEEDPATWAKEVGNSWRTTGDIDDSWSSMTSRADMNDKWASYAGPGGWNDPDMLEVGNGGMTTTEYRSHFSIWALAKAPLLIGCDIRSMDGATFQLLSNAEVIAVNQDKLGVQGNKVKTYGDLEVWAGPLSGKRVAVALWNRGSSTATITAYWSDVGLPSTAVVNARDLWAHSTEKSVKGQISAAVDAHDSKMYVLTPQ
Procedure: Green coffee bean α-galactosidase was purified and assayed as described.
Kinetic studies were performed at 37°C in 50 mM sodium phosphate buffer, pH 6.5 containing 0.1% serum albumin. Reactions were initiated by the addition of enzyme (final concentration = 0.3 µg/mL), bringing the total volume to 200µL. Reaction rates were measured by monitoring the release of p-nitrophenolate (λ = 400 nm, ε = […]) from PNP-Gal by means of a UNICAM 8700 UV-Vis spectrophotometer equipped with a circulating water bath. Inhibition studies were performed by varying […]
concentrations of both PNP-Gal and inhibitor. Ki values were calculated by direct fit of the initial rates to the equation below using Grafit. […]

[4] = system: β-galactosidase mutant feline fibroblast cell line; assay: Chemical chaperone activity in β-galactosidase mutant feline fibroblast cell line; type: cell-based; details: preliminary; for increase of enzyme activity of β-galactosidase mutant: concentration 100 µM
[5] = target: T4, human lysosomal β-galactosidase (Homo sapiens, UniProt P16278); assay: Inhibition of human lysosomal β-galactosidase; type: biochemical
T4 sequence (P16278 29-677): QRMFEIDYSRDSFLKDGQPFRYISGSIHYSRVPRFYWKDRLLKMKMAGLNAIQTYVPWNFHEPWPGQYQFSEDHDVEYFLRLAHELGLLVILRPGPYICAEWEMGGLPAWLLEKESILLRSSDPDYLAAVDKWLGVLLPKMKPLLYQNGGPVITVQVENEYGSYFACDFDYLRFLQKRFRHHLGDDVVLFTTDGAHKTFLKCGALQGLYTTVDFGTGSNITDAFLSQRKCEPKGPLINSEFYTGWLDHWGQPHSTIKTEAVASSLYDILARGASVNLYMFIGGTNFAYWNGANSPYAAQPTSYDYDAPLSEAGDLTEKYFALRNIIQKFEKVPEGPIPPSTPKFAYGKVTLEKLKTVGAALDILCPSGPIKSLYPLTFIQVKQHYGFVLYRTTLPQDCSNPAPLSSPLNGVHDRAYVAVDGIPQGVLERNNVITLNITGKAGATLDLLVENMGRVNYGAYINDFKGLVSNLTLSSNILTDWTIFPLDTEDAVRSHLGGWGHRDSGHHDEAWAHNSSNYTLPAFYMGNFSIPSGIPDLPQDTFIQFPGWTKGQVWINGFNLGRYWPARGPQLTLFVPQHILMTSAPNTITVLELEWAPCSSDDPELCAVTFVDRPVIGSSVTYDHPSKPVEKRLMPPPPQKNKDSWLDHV

β-galactosidase = system: β-galactosidase; parameters: method as in PMID 19812739; details: GM1-gangliosidosis model mice, orally administered; cited from earlier work
[6] = 37 °C, pH 7.0, read-out: Ki β-gal E. coli

Question: What does the source list for `OC[C@H]1NC[C@H](O)[C@@H](O)[C@H]1O` [Compound 4, 1-Deoxygalactonojirimycin]?
Answer: increase of α-galactosidase A levels (α-galactosidase A): 1.5 to 28 fold; tissue globotriaosylceramide levels [1]: reduce tissue globotriaosylceramide levels

Question: Which results are given for `CC(C)c1ccc(C(=O)NCCCCCCN2C[C@H](O)[C@@H](O)[C@@H](O)[C@H]2CO)cc1` [Compound 16]?
Answer: pKi [2]: 4.89; pKi (E. coli β-galactosidase): 5.89; pKi [3]: 5.59

Question: With `O=C(NCCCCCCN1C[C@H](O)[C@@H](O)[C@@H](O)[C@H]1CO)c1cccnc1` [Compound 17] as the compound, how does the pKi [2] read?
Answer: 5.82

Question: What about the pKi (E. coli β-galactosidase; [6]) of the same compound?
Answer: 6.08

Question: What about the pKi [3] of the same compound?
Answer: 5.66

Question: What about the “increase of enzyme activity of β-galactosidase mutant” value [4] of the same compound?
Answer: up to 5.5 fold

Question: Which results are given for `CN(C)c1ccc(C(=O)NCCCCCCN2C[C@H](O)[C@@H](O)[C@@H](O)[C@H]2CO)cc1` [Compound 18]?
Answer: pKi [2]: 5.42; pKi (E. coli β-galactosidase; [6]): 5.96; pKi [3]: 6.31; increase of relative enzyme activity of β-galactosidase mutant ([4]; concentration 2 µM): 4.8 fold

Question: Which results are given for `O=C(CCCc1ccc2ccc3cccc4ccc1c2c34)NCCCCCCN1C[C@H](O)[C@@H](O)[C@@H](O)C1CO` (stereo partly shown) [Compound 19]?
Answer: pKi [2]: 7.22; pKi (E. coli β-galactosidase): 6.60; pKi [3]: 5.15

Question: With `CC(C)(C)OC(=O)NCCCCCCN1C[C@H](O)[C@@H](O)[C@@H](O)[C@H]1CO` [Compound 20] as the compound, how does the pKi ([2]; read-out: Ki β-glu/gal Abg, 37 °C, pH 7.0, substrate 4-nitrophenyl β-D-glucopyranoside) read?
Answer: 5.52

Question: What about the pKi (E. coli β-galactosidase; [6]) of the same compound?
Answer: 5.62

Question: And the pKi [3]?
Answer: 5.37

Question: What about the pIC50 [5] of the same compound?
Answer: 4.96

Question: And the pKi [5]?
Answer: 5.70

Question: Which results are given for `O=C(NCCCCCCN1C[C@H](O)[C@@H](O)[C@@H](O)[C@H]1CO)OCc1ccccc1` [Compound 22]?
Answer: pKi [2]: 5.22; pKi (E. coli β-galactosidase; [6]): 6.40; pKi [3]: 5.66; pIC50 [5]: 5.49; pKi [5]: 6.14; increase of enzyme activity of β-galactosidase mutant [4]: up to 5.5 fold

Question: For `CCCCCCCCN[C@@H]1C=C(CO)[C@H](O)[C@H](O)[C@H]1O` [N-octyl-4-epi-β-valienamine], which “β-galactosidase activity in brain after oral administration” value (β-galactosidase) is on record?
Answer: enhancing β-galactosidase activity
